Measurements reported in ChEMBL document CHEMBL1944566, “Conjugation of cell-penetrating peptides leads to identification of anti-HIV peptides from matrix proteins” (Bioorg Med Chem, 2012).
Active and inactive are the calls of the source. No cut-off for these calls is given here. Where a SMILES comes first, the peptide text is derived from it. The star is where a group is joined. Cam = NC(=O)C*

Assays:
[1] = tested on: Human immunodeficiency virus 1; experiment: Antiviral activity against X4 tropic HIV1 NL4-3 in MT4 cells assessed as protection from virus-induced cytopathogenicity after 5 days by MTT assay; format: functional, organism-based; settings: Human immunodeficiency virus 1, NL4-3, MT4, 120 h
[2] = tested on: Human immunodeficiency virus 1; experiment: Antiviral activity against R5 tropic HIV1 NL(AD8) in PM1/CCR5 cells assessed as protection from virus-induced cytopathogenicity at 25 uM after 5 days by MTT assay; format: functional; settings: Human immunodeficiency virus 1, NL(AD8), PM1/CCR5, 120 h
[3] = tested on: Human immunodeficiency virus 1; experiment: Antiviral activity against R5 tropic HIV1 JR-CSF in PM1/CCR5 cells assessed as protection from virus-induced cytopathogenicity measuring capsid p24 level after 5 days by ELISA; format: functional, cell-based; settings: Human immunodeficiency virus 1, JRCSF ISOLATE, PM1/CCR5, 120 h
[4] = Cytotoxicity against human MT4 cells after 5 days by MTT assay; format: cell-based
[5] = Aqueous solubility of the compound; format: physicochemical; settings: buffer
[6] = tested on: Human immunodeficiency virus 1; experiment: Antiviral activity against R5 tropic HIV1 NL(AD8) in PM1/CCR5 cells assessed as protection from virus-induced cytopathogenicity after 5 days by MTT assay; format: functional, organism-based; settings: Human immunodeficiency virus 1, NL(AD8), PM1/CCR5, 120 h
[7] = tested on: Human immunodeficiency virus 1; experiment: Antiviral activity against X4 tropic HIV1 NL4-3 in MT4 cells assessed as protection from virus-induced cytopathogenicity at 3.13 uM after 5 days by MTT assay; format: functional, organism-based
[8] = tested on: Human immunodeficiency virus 1; experiment: Antiviral activity against X4 tropic HIV1 NL4-3 in MT4 cells assessed as protection from virus-induced cytopathogenicity at 25 uM after 5 days by MTT assay; format: functional, organism-based
[9] = tested on: Human immunodeficiency virus 1; experiment: Antiviral activity against R5 tropic HIV1 NL(AD8) in PM1/CCR5 cells assessed as protection from virus-induced cytopathogenicity at 6.25 uM after 5 days by MTT assay; format: functional; settings: Human immunodeficiency virus 1, NL(AD8), PM1/CCR5, 120 h
[10] = tested on: Human immunodeficiency virus 1; experiment: Antiviral activity against R5 tropic HIV1 JR-CSF in PM1/CCR5 cells assessed as protection from virus-induced cytopathogenicity measuring capsid p24 level at 50 uM after 5 days by ELISA; format: functional; settings: Human immunodeficiency virus 1, JRCSF ISOLATE, PM1/CCR5, 120 h
[11] = tested on: Human immunodeficiency virus 1; experiment: Antiviral activity against R5 tropic HIV1 NL(AD8) in PM1/CCR5 cells assessed as protection from virus-induced cytopathogenicity at 50 uM after 5 days by MTT assay; format: functional; settings: Human immunodeficiency virus 1, NL(AD8), PM1/CCR5, 120 h

What does the source list for CC(=O)N[C@@H](CO)C(=O)N[C@@H](CCCCN)C(=O)N[C@@H](CCCCN)C(=O)N[C@@H](CCCCN)C(=O)N[C@@H](C)C(=O)N[C@@H](CCC(N)=O)C(=O)N[C@@H](CCC(N)=O)C(=O)N[C@@H](C)C(=O)N[C@@H](C)C(=O)N[C@@H](C)C(=O)N[C@@H](CC(=O)O)C(=O)N[C@H](C(=O)NCC(=O)N[C@@H](CC(N)=O)C(=O)N[C@@H](CC(N)=O)C(=O)NCC(=O)N[C@@H](CSCC(=O)N[C@@H](CCCNC(=N)N)C(=O)N[C@@H](CCCNC(=N)N)C(=O)N[C@@H](CCCNC(=N)N)C(=O)N[C@@H](CCCNC(=N)N)C(=O)N[C@@H](CCCNC(=N)N)C(=O)N[C@@H](CCCNC(=N)N)C(=O)N[C@@H](CCCNC(=N)N)C(=O)N[C@@H](CCCNC(=N)N)C(N)=O)C(N)=O)[C@@H](C)O?
EC50 [1]: 41 µM; inhibition at 25 µM [2]: 30%; EC50 [3]: 27 µM; CC50 at 120 h [4]: > 50 µM

Which EC50 [1] does the source give for CC[C@H](C)[C@H](NC(=O)[C@@H](NC(=O)[C@H](CC(N)=O)NC(=O)[C@H](Cc1ccc(O)cc1)NC(=O)[C@H](CC(C)C)NC(=O)[C@H](CO)NC(=O)[C@H](CCCNC(=N)N)NC(=O)[C@H](CC(C)C)NC(=O)[C@H](CCC(=O)O)NC(=O)[C@H](CCC(=O)O)NC(=O)[C@H](CO)NC(=O)CNC(C)=O)[C@@H](C)O)C(=O)N[C@@H](C)C(=O)N[C@H](C(=O)N[C@@H](CC(C)C)C(=O)NCC(=O)N[C@@H](CSCC(N)=O)C(N)=O)C(C)C here?
Its EC50 is over 50 µM.

What about the CC50 at 120 h [4] of the same molecule?
Its CC50 at 120 h is over 50 µM.

What about the solubility [5] of the same molecule?
The solubility was “Insoluble”.

Which EC50 [1] does the source give for CC[C@H](C)[C@H](NC(=O)[C@H](CCCNC(=N)N)NC(=O)[C@H](CCC(N)=O)NC(=O)[C@H](Cc1cnc[nH]1)NC(=O)[C@@H](NC(=O)[C@H](CO)NC(=O)[C@H](Cc1ccc(O)cc1)NC(=O)[C@H](CC(C)C)NC(=O)[C@@H](NC(=O)[C@H](C)NC(=O)[C@@H](NC(=O)[C@@H](NC(C)=O)[C@@H](C)O)[C@@H](C)CC)C(C)C)C(C)C)C(=O)N[C@@H](CC(=O)O)C(=O)N[C@H](C(=O)N[C@@H](CCCCN)C(=O)NCC(=O)N[C@@H](CSCC(N)=O)C(N)=O)C(C)C (Ac-TIAVLYSVHQRIDVKGC(Cam)-NH2) here?
The EC50 was 29 µM.

And the EC50 [6]?
The EC50 was 13 µM.

And the EC50 [3]?
Its EC50 is 8.1 µM.

And the CC50 at 120 h [4]?
The CC50 at 120 h was over 50 µM.

And the solubility [5]?
The solubility was “Insoluble”.

For CC[C@H](C)[C@H](NC(=O)[C@H](Cc1cnc[nH]1)NC(=O)[C@H](CCCCN)NC(=O)[C@H](CC(C)C)NC(C)=O)C(=O)N[C@H](C(=O)N[C@@H](Cc1c[nH]c2ccccc12)C(=O)N[C@@H](C)C(=O)N[C@@H](CO)C(=O)N[C@@H](CCCNC(=N)N)C(=O)N[C@@H](CCC(=O)O)C(=O)N[C@@H](CC(C)C)C(=O)N[C@@H](CCC(=O)O)C(=O)N[C@@H](CCCNC(=N)N)C(=O)N[C@@H](Cc1ccccc1)C(=O)N[C@@H](C)C(=O)NCC(=O)N[C@@H](CSCC(=O)N[C@@H](CCCNC(=N)N)C(=O)N[C@@H](CCCNC(=N)N)C(=O)N[C@@H](CCCNC(=N)N)C(=O)N[C@@H](CCCNC(=N)N)C(=O)N[C@@H](CCCNC(=N)N)C(=O)N[C@@H](CCCNC(=N)N)C(=O)N[C@@H](CCCNC(=N)N)C(=O)N[C@@H](CCCNC(=N)N)C(N)=O)C(N)=O)C(C)C, which inhibition [7] is on record?
Its inhibition is “inactive”.

And the CC50 at 120 h [4]?
Its CC50 at 120 h is 3.7 µM.

For CC[C@H](C)[C@H](NC(=O)[C@H](Cc1cnc[nH]1)NC(=O)[C@H](CCCCN)NC(=O)[C@H](CC(C)C)NC(=O)[C@H](CCCCN)NC(=O)[C@H](Cc1ccc(O)cc1)NC(=O)[C@H](CCC(N)=O)NC(=O)[C@H](CCCCN)NC(=O)[C@H](CCCCN)NC(=O)CNC(=O)CNC(=O)[C@@H]1CCCN1C(=O)[C@H](CCCNC(=N)N)NC(=O)[C@H](CC(C)C)NC(C)=O)C(=O)N[C@H](C(=O)NCC(=O)N[C@@H](CSCC(=O)N[C@@H](CCCNC(=N)N)C(=O)N[C@@H](CCCNC(=N)N)C(=O)N[C@@H](CCCNC(=N)N)C(=O)N[C@@H](CCCNC(=N)N)C(=O)N[C@@H](CCCNC(=N)N)C(=O)N[C@@H](CCCNC(=N)N)C(=O)N[C@@H](CCCNC(=N)N)C(=O)N[C@@H](CCCNC(=N)N)C(N)=O)C(N)=O)C(C)C, which inhibition [8] is on record?
Its inhibition is “inactive”.

What about the CC50 at 120 h [4] of the same molecule?
The CC50 at 120 h was 36 µM.

With CC[C@H](C)[C@H](NC(=O)[C@H](CCC(N)=O)NC(=O)[C@H](CCCNC(=N)N)NC(=O)[C@H](CO)NC(=O)CNC(=O)[C@H](CCC(=O)O)NC(=O)[C@H](CO)NC(=O)[C@@H](NC(=O)[C@H](CCC(=O)O)NC(=O)[C@H](CC(C)C)NC(C)=O)[C@@H](C)O)C(=O)N[C@@H](CC(C)C)C(=O)NCC(=O)N[C@@H](CCC(N)=O)C(=O)N[C@@H](CC(C)C)C(=O)N[C@@H](CCC(N)=O)C(=O)NCC(=O)N[C@@H](CSCC(N)=O)C(N)=O (Ac-LETSEGSRQILGQLQGC(Cam)-NH2) as the molecule, how does the EC50 [1] read?
Its EC50 is 37 µM.

What about the inhibition at 6.25 µM [9] of the same molecule?
Its inhibition at 6.25 µM is 24%.

What about the inhibition at 50 µM [10] of the same molecule?
The inhibition at 50 µM was 25%.

And the CC50 at 120 h [4]?
Its CC50 at 120 h is over 50 µM.

For CC(=O)N[C@@H](CC(C)C)C(=O)NCC(=O)N[C@@H](CCC(N)=O)C(=O)N[C@@H](CC(C)C)C(=O)N[C@@H](CCC(N)=O)C(=O)N1CCC[C@H]1C(=O)N[C@@H](CO)C(=O)N[C@@H](CC(C)C)C(=O)N[C@@H](CCC(N)=O)C(=O)N[C@H](C(=O)NCC(=O)N[C@@H](CO)C(=O)N[C@@H](CCC(=O)O)C(=O)N[C@@H](CCC(=O)O)C(=O)N[C@@H](CC(C)C)C(=O)NCC(=O)N[C@@H](CSCC(=O)N[C@@H](CCCNC(=N)N)C(=O)N[C@@H](CCCNC(=N)N)C(=O)N[C@@H](CCCNC(=N)N)C(=O)N[C@@H](CCCNC(=N)N)C(=O)N[C@@H](CCCNC(=N)N)C(=O)N[C@@H](CCCNC(=N)N)C(=O)N[C@@H](CCCNC(=N)N)C(=O)N[C@@H](CCCNC(=N)N)C(N)=O)C(N)=O)[C@@H](C)O, which EC50 [1] is on record?
Its EC50 is 35 µM.

What about the inhibition at 50 µM [11] of the same molecule?
The inhibition at 50 µM was 37%.

And the inhibition at 50 µM [10]?
The inhibition at 50 µM was 35%.

What about the CC50 at 120 h [4] of the same molecule?
Its CC50 at 120 h is over 50 µM.

Which results are given for CC[C@H](C)[C@H](NC(=O)[C@H](CCCCN)NC(=O)[C@H](CC(=O)O)NC(=O)[C@H](CC(C)C)NC(C)=O)C(=O)N[C@@H](CCC(=O)O)C(=O)N[C@@H](CCC(=O)O)C(=O)N[C@@H](CCC(=O)O)C(=O)N[C@@H](CCC(N)=O)C(=O)N[C@@H](CC(N)=O)C(=O)N[C@@H](CCCCN)C(=O)N[C@@H](CO)C(=O)N[C@@H](CCCCN)C(=O)N[C@@H](CCCCN)C(=O)N[C@@H](CCCCN)C(=O)N[C@@H](C)C(=O)NCC(=O)N[C@@H](CSCC(=O)N[C@@H](CCCNC(=N)N)C(=O)N[C@@H](CCCNC(=N)N)C(=O)N[C@@H](CCCNC(=N)N)C(=O)N[C@@H](CCCNC(=N)N)C(=O)N[C@@H](CCCNC(=N)N)C(=O)N[C@@H](CCCNC(=N)N)C(=O)N[C@@H](CCCNC(=N)N)C(=O)N[C@@H](CCCNC(=N)N)C(N)=O)C(N)=O?
EC50 [1]: 18 µM; inhibition at 25 µM [2]: 17%; EC50 [3]: 23 µM; CC50 at 120 h [4]: > 50 µM
